Data set [1] deals with T1, human KMO (Homo sapiens, UniProt O15229). Briefly: KMO enzyme activity (inhibitor screening kit) assay. The data set is classed as biochemical. Set-up: purchased BPS Bioscience. The note with it: for inhibition at 100 µM: read-out: % inhibition of KMO enzyme activity; for IC50: human KMO enzyme. Here is the method: The enzymatic assay was performed in duplicate. Ro 61-8048 was used as the positive control. The test compounds were dissolved in DMSO at 100 mM and diluted to 1 mM in assay buffer. A reaction mixture of assay buffer (50 μL), human KMO (20 μg/mL; 50 μL), test compounds (1 mM; 10 μL), and substrate (40 μL NADPH (10 mM) plus L-Kyn (20 mM)) were incubated in a 96-well plate at room temperature for 1.5 h. The absorbance was recorded at 340 nm. The enzyme activity was expressed as % activity as follows: % Activity=[(Abssample−Absblank)/(Abscontrol−Absblank)]×100
% Inhibition was calculated by subtracting the % activity from 100%.

Data set [2] has as its target T1, human KMO. Put plainly: Competitive SPR binding assay. Conditions: for Experimental RU: CFA 75 μM, Ro 61-8048 5 μM, alone or combined. (In SPR one partner is held on a chip, and binding of the other changes the refractive index at the surface.)
Protocol: HBS-P+ (20 mM; 0.02 M HEPES, 0.3 M NaCl, 0.1% v/v surfactant P20; pH 7.4) containing 3% DMSO was used as the running buffer. […] Ro 61-8048 was prepared as a final concentration of 5 μM in running buffer. […] FO(A)=1/1+KDA/CA(1+CB/KDB);FO(B)=1/1+KDB/CB(1+CA/KDA) where CA and CB are the respective concentrations of both binders, and KDA and KDB represent the equilibrium dissociation constants of the binders. The FO values were used to calculate the theoretical RU representative of competing compounds using the following equation [23]: Robserved=FO(A)·Rmax(A)+FO(B)·Rmax(B)
Data set [3] deals with KMO. Also on record: method as in PMID 28464785. Conditions: rat liver and kidney homogenates in vitro; cited from earlier work.
Data set [4] has as its target T1, human KMO. Briefly: SPR binding assay (Biacore T200). Set-up: purchased Cosmo Bio USA. The note with it: for Kon: association rate; for Kd: dissociation constant. As to the method:
The protein was manually immobilized on a Series S Sensor Chip CM5 based on an amine coupling method with minor modification. An SPR assay was conducted on the Biacore T200 SPR instrument (Cytiva; Marlborough, MA, USA). […] Ro 61-8048 stock solution (6 mM; dissolved in DMSO) was diluted into a series of concentrations ranging from 1.25 to 20 μM in the running buffer.

Details of data set [5]: method as in PMID 21640374. Conditions: cited from earlier work.
Data set [6] has as its target T1, human KMO. Put plainly: KMO enzyme activity (inhibitor screening kit) assay. The format is biochemical. Also on record: purchased BPS Bioscience. The note with it: read-out: % inhibition of KMO.
In data set [7] the test system is KMO. Conditions: KMO inhibitor; cited from earlier work.

One may read the inhibition as the drop in the measured response relative to a control, in per cent. By IC50 is commonly meant the concentration at which inhibition is half-maximal. By Kd is commonly meant the constant that tells how readily two partners part at equilibrium. Read a low Kd as a tighter complex.

Read-outs that look alike come from different tables or passages of the source.

T1 sequence (O15229 whole entry): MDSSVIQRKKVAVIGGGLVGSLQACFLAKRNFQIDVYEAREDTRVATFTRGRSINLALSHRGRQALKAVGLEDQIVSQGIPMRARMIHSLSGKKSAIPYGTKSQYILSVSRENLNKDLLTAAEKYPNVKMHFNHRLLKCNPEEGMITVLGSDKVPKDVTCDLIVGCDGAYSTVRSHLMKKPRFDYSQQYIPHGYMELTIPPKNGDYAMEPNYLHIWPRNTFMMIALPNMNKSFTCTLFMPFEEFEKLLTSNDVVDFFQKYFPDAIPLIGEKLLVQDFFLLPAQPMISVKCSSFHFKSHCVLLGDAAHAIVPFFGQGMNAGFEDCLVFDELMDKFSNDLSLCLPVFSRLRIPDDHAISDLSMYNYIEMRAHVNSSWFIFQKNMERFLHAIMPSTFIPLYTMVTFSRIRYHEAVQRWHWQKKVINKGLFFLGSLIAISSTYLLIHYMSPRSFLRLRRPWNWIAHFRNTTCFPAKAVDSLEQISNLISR

For `CCCCCc1cc(O)c2c(c1)OC(C)(CCC=C(C)C)C=C2` (stereo not drawn) [CBC, cannabichromene], at human KMO [1], the inhibition at 100 µM was determined as 0%.

Turning to `COc1ccc(S(=O)(=O)Nc2nc(-c3cccc([N+](=O)[O-])c3)cs2)cc1OC` [Ro 61-8048, 3,4-Dimethoxy-[-N-4-(Nitrophenyl)Thiazol-2YL]-Benzenesulfonamide, reference compound], the half-maximal inhibitory concentration (IC50) was 5.1 µM at human KMO [1] and 0.037 µM in the data set with KMO [3]. Besides, at human KMO [2], the “Experimental RU” value turned out to be 19 RU. For the same compound, at human KMO [4] (SPR), the Kon is on record as 3.7 ×10^3, 1/Ms. The same compound showed a Kd at human KMO [4] (SPR) of 11 µM. For the same compound, on human KMO [4] (SPR, dissociation rate), the Koff is recorded as 38.5 ×10^−3, 1/s. Further, the “binding response unit (RU)” value at human KMO [4] (at 1 μM) was found to be 1.48 RU; on human KMO [4] (at 3 μM) it was 2.99 RU; at human KMO [4] (at 10 μM) it was 13.4 RU; at human KMO [4] (at 20 μM), 27.0 RU. Moreover, the “crossing of the blood brain barrier” value in data set [5] is listed as “cannot cross the blood brain barrier”.

With `COc1cc(-c2cc(=O)c3c(O)c(C/C=C(\C)CCC=C(C)C)c(O)cc3o2)ccc1O` [CFA, cannflavin A], at human KMO [1], half-maximal inhibition (IC50) required 29.4 µM and the inhibition at 100 µM was 99%. For the same compound, the “Experimental RU” value on human KMO [2] is reported as 27 RU. In addition, the “binding mode of CFA and Ro 61-8048 to the KMO protein” value at human KMO [2] (competitive SPR analysis) was “competitive, rather than non-competitive binding”. In addition, on human KMO [6], the inhibition at 2.5 µM is 8.5%, the inhibition at 5 µM is 15%, the inhibition at 20 µM stood at 38% and the inhibition at 40 µM came to 59%. Also, at human KMO [4] (SPR), the Kon is 0.3 ×10^3, 1/Ms and the Kd is 41 µM. The Koff on human KMO [4] (SPR, dissociation rate) is given as 14.2 ×10^−3, 1/s. Moreover, on human KMO [4] (SPR, read-out: association rate), the kon came to 300 M⁻¹ s⁻¹. Also, the Koff at human KMO [4] (SPR, read-out: dissociation rate) came to 0.0142 s⁻¹. For the same compound, at human KMO [4] (at 10 μM), the “binding response unit (RU)” value is given as 5.6 RU. The “binding response unit (RU)” value on human KMO [4] (at 19 μM) is on record as 10.4 RU. Moreover, the “binding response unit (RU)” value on human KMO [4] (at 38 μM) is on record as 17.9 RU. In addition, on human KMO [4] (at 150 μM), the “binding response unit (RU)” value amounted to 35.7 RU. In addition, at human KMO [4] (at 300 μM), the “binding response unit (RU)” value worked out at 40.7 RU.

`C=C(C)[C@@H]1CCC(C)=C[C@H]1c1c(O)cc(CCCCC)cc1O` [CBD, cannabidiol, reference compound]: at human KMO [1], the inhibition at 100 µM worked out at 6%.

For the compound `C=C(C)[C@@H]1CCC(C)=C[C@H]1c1c(O)cc(CCC)cc1O` [CBDV, cannabidivarin], the inhibition at 100 µM at human KMO [1] was 0%.

Turning to `NC(CC(=O)c1cccc([N+](=O)[O-])c1)C(=O)O` (stereo not drawn), the IC50 in the data set with KMO [7] is 0.9 µM.

With `CCCCCc1cc(O)c(C/C=C(\C)CCC=C(C)C)c(O)c1C(=O)O` [CBGA, cannabigerolic acid], the inhibition at 100 µM at human KMO [1] was 1%.

In the case of `CCCCCc1cc(O)c(C/C=C(\C)CCC=C(C)C)c(O)c1` [CBG, cannabigerol], the inhibition at 100 µM on human KMO [1] was determined as 1%.

On to `O=C(O)[C@H]1C[C@@H]1C(=O)c1ccc(Cl)c(Cl)c1` [UPF-648], for which the IC50 with KMO [7] is 0.04 µM.

Consider `CCCCCc1cc(O)c2c(c1)OC(C)(C)C1=C2C(O)C(C)(O)CC1` (stereo not drawn) [CBT, cannabitriol], for which the “% inhibition of KMO enzyme activity” value at human KMO [1] (at 100 μM) came to 11%.

Turning to `CCCCCc1cc(O)c2c(c1)OC(C)(C)c1ccc(C)cc1-2` [CBN, cannabinol], the inhibition at 100 µM on human KMO [1] stood at 0%.

Take `CCCCCc1cc(O)c2c(c1)OC(C)(C)[C@@H]1CC=C(C)C[C@@H]21` [Δ^8 THC, delta-8-Tetrahydrocannabinol]: on human KMO [1], the inhibition at 100 µM stood at 1%.

The record behind these values is paper PMC9598531 (Biology, 2022).
